Consider ten molecules from patent US20080312336A1, “Preventive and/or Therapeutic Agent for Diabetic Vascular Disorder and Respiratory Disorder” (priority 2005, published 2008).

Data set [1] deals with vascular smooth muscles from the STZ-induced diabetic rat model. As to the kind of experiment: U-46619-induced contraction of isolated thoracic aorta rings from STZ-induced diabetic rats after four weeks of dosing. It counts as in vivo, SD rats. Set-up: effective dose for inducing 50% muscle contraction (ED50): unit not given here. Particulars: for effective dose for inducing 50% muscle contraction (ED50): ED50 of U-46619. The procedure: Eight-week-old male SD rats were divided into four groups, three of which were intraperitoneally administered with 50 mg/kg of streptozotocin (hereafter, also referred to as STZ) to induce diabetes. Of this diabetic model, two groups were used as the test substance-administered groups, and were intraperitoneally administered with 2 mg/kg or 8 mg/kg of “compound 24” synthesized in Preparation Example […] once daily for four weeks continuously. The diabetic model which was not administered with “compound 24” was used as the control group, and rats which were administered with neither STZ nor “compound 24” were used as the non-treated group.
After four weeks from the start of administration, thoracic aorta were isolated to form ring specimens (endothelium (+) specimens) of about 2 mm in length. The vascular endothelia were further removed from these specimens to form endothelium (−) specimens. These specimens were suspended in an organ bath, and the contractile response to cumulative administration of 9,11-dideoxy-9α,11α-methanoepoxy-prosta-5Z,13E-dien-1-oic acid (CAS Registry No.: 56985-40-1, hereafter also referred to as U-46619), which is a thromboxane A2 derivative, was observed. The muscle contractile force was measured with various cumulative concentrations of U-46619 within the range of 10^−9.0 to 10^−6.5 M, to obtain the maximum muscle contractile force (Emax (g/mg tissue)) and the effective dose for inducing 50% muscle contraction (ED50 (M)).

The test system of data set [2] is tracheal smooth muscles from the STZ-induced diabetic rat model. The data set is described as follows: Carbachol-induced contraction of isolated tracheal smooth muscle from STZ-induced diabetic rats after four weeks of dosing. It counts as in vivo, SD rats. The note with it: for effective dose for inducing 50% muscle contraction (ED50): ED50 of carbachol; for effective dose for inducing 50% muscle contraction (ED50) / maximum muscle contractile force (Emax): mean±SD, n=6; for maximum muscle contractile force (Emax): carbachol. Here is the method: Eight-week-old male SD rats were divided into four groups, three of which were intraperitoneally administered with 50 mg/kg of streptozotocin (hereafter, also referred to as STZ) to induce diabetes. Of this diabetic model, two groups were used as the test substance-administered groups, and were intraperitoneally administered with 2 mg/kg or 8 mg/kg of the compound, 3-(15-hydroxypentadecyl)-2,4,4-trimethyl-2-cyclohexen-1-one (hereunder, referred to as “compound 24”) synthesized in Preparation Example 24, once daily for four weeks continuously. The diabetic model which was not administered with “compound 24” was used as the control group, and rats administered with neither STZ nor “compound 24” were used as the non-treated group.
After four weeks from the start of administration, tracheae were isolated to prepare specimens (mucosal epithelium (+) specimens). The mucosal epithelia were further removed from these specimens to form mucosal epithelium (−) specimens. These specimens were suspended in an organ bath, and the contractile response to cumulative administration of carbachol (CAS Registry No.: 51-83-2) was observed. The muscle contractile force was measured with various cumulative concentrations of carbachol within the range of 10^−8.0 to 10^−4.5 M, to obtain the maximum muscle contractile force (Emax (g/mg tissue)) and the effective dose for inducing 50% muscle contraction (ED50 (M)).

For data set [3], the system named is rat isolated trachea. Particulars: streptozotocin-induced diabetic rats and normal rats; cited from earlier work.
Data set [4] has as its system tracheal muscles isolated from streptozotocin-induced diabetic rats. Particulars: cited from earlier work.
In data set [5] the test system is tracheal specimens contracted with carbachol. The note with it: cited from earlier work; for relaxation of specimens contracted with carbachol: carbachol 10^−6 mol/l; for response of diabetic rat specimens compared with control animals: specimens six weeks after 65 mg/kg i.v. streptozotocin.
The mark [6] stands for this setting: mucosal epithelium (+) specimens, 2 mg/kg i.p. once daily for four weeks.
Setting [7] is: mucosal epithelium (+) specimens, 8 mg/kg i.p. once daily for four weeks.
The mark [8] stands for this setting: mucosal epithelium (−) specimens, 2 mg/kg i.p. once daily for four weeks.
[9] abbreviates: mucosal epithelium (−) specimens, 8 mg/kg i.p. once daily for four weeks.

As for `CC1=C(CCCCCCCCCCCCCCCO)C(C)(C)CCC1=O` [Compound 24, 3-(15-hydroxypentadecyl)-2,4,4-trimethyl-2-cyclohexen-1-one], in data set [1] (2 mg/kg or 8 mg/kg, compared to the control group), the “effect on Emax increase, endothelium (−) specimens” value is on record as “significant inhibition of the Emax increase”. Also, the “effect on Emax increase, endothelium (+) specimens” value in data set [1] (8 mg/kg, compared to the control group) is “significant inhibition of the Emax increase”. Moreover, the “effective dose for inducing 50% muscle contraction (ED50)” value in data set [1] (endothelium (+) specimens, 2 mg/kg i.p. once daily for four weeks, mean±SD, n=6) is given as 8.077 ± 0.037 ×10^−9; in data set [1] (endothelium (+) specimens, 8 mg/kg i.p. once daily for four weeks, mean±SD, n=6), 8.102 ± 0.055 ×10^−9; in data set [1] (endothelium (−) specimens, 2 mg/kg i.p. once daily for four weeks, mean±SD, n=6) it was 8.149 ± 0.030 ×10^−9; in data set [1] (endothelium (−) specimens, 8 mg/kg i.p. once daily for four weeks, mean±SD, n=6), 8.194 ± 0.114 ×10^−9; in data set [2] (setting [6]), 12.2 ± 2.3 ×10^−8 M; in data set [2] (setting [7]), 17.2 ± 5.3 ×10^−8 M. Moreover, the “effective dose for inducing 50% muscle contraction (ED50)” value in data set [2] (setting [8]) is on record as 11.4 ± 3.1 ×10^−8 M; in data set [2] (setting [9]), 13.3 ± 4.2 ×10^−8 M. Also, the “overall effect on vascular smooth muscle contraction” value in data set [1] (STZ-induced diabetic rats) is “vascular smooth muscle contraction-inhibiting effect”. Also, the “effect on ED50 of U-46619” value in data set [1] (all groups) was “no difference in ED50 among the groups”. The “effect on Emax increase of U-46619-induced vascular smooth muscle contraction” value in data set [1] (both endothelium (+) and (−) specimens, 2 and 8 mg/kg, vs. control group) was “inhibited the Emax increase in a dose-dependent manner”. In addition, the “maximum muscle contractile force (Emax)” value in data set [1] (endothelium (+) specimens, U-46619, 2 mg/kg i.p. once daily for four weeks, mean±SD, n=6) was 0.576 ± 0.082 g/mg tissue; in data set [2] (setting [6]) it was 0.303 ± 0.047 g/mg tissue; in data set [2] (setting [7]), 0.292 ± 0.029 g/mg tissue; in data set [2] (setting [8]), 0.307 ± 0.036 g/mg tissue; in data set [2] (setting [9]), 0.242 ± 0.019 g/mg tissue. In data set [2] (2 and 8 mg/kg, vs. control group), the “effect on ED50 decrease of carbachol-induced tracheal smooth muscle contraction” value is “inhibited the ED50 decrease in a dose-dependent manner”. Moreover, in data set [2] (STZ-induced diabetic rats), the “overall effect on tracheal smooth muscle contraction” value was “tracheal smooth muscle contraction-improving tendency”. Moreover, the “effect on Emax increase of carbachol-induced tracheal smooth muscle contraction” value in data set [2] (both mucosal epithelium (+) and (−) specimens, 2 and 8 mg/kg, vs. control group) is “tended to suppress the Emax increase concentration-dependently”.
In the case of `NCCCC(=O)O` [GABA, γ-aminobutyric acid], the “effect on tracheal contraction induced by electrical stimulation” value in data set [3] is “inhibited”.
In the case of `COC(=O)[C@@H](N)CCCNC(=N)N[N+](=O)[O-]` [L-NAME, NG-nitro-L-arginine-methylester], the “effect on electrical stimulation-induced contraction” value in data set [4] (normal rats and diabetic rats) was “enhanced the response in normal rats, but not in diabetic rats”. The “effect on acetylcholine-induced contraction” value in data set [4] (tracheal muscles from streptozotocin-induced diabetic rats) was “not affected”.
`O=C1C=C(CCCCCCCCCCCO)CCC1` [Preparation Example 2, 3-(11-hydroxyundecyl)-2-cyclohexen-1-one] came in with a melting point of 34 to 35 °C.
In turn, `O=C1C=C(CCCCCCCCCCCCO)CCC1` [Preparation Example 3, 3-(12-hydroxydodecyl)-2-cyclohexen-1-one] had a melting point of 35 to 36 °C.
Same read-out and setting: the value for `O=C1C=C(CCCCCCCCCCCCCO)CCC1` [Preparation Example 4, 3-(13-hydroxytridecyl)-2-cyclohexen-1-one] was 42 to 43 °C; that for `O=C1C=C(CCCCCCCCCCCCCCO)CCC1` [Preparation Example 5, 3-(14-hydroxytetradecyl)-2-cyclohexen-1-one] was 44 to 45 °C.
Take `Nc1cc(-c2ccncc2)c[nH]c1=O` [aminone]: in data set [5], the “relaxation of specimens contracted with carbachol” value (“relaxation of specimens contracted” below) is listed as “concentration-dependent relaxation” and the “response of diabetic rat specimens compared with control animals” value (“response … compared with control animals” below) is recorded as “higher response”.
Regarding `COc1ccc(C2CNC(=O)C2)cc1OC1CCCC1` (centres unmarked) [rolipram], in data set [5], the “relaxation of specimens contracted” value was “concentration-dependent relaxation” and the “response … compared with control animals” value was “no significant difference”. Moreover, in data set [5] (control animal specimens), the “concentration at which the effect was observed” value is given as “observed at the lowest concentration”.
On to `Cn1c(=O)c2[nH]cnc2n(C)c1=O` [theophylline], for which, in data set [5], the “relaxation of specimens contracted” value was “concentration-dependent relaxation” and the “response … compared with control animals” value was “no significant difference”.
